Patent US9889135B2, “Companion diagnostic for CDK4 inhibitors” (Memorial Sloan-Kettering Cancer Center, priority 2013, dated 2018)

Tests used:
DBTRG-05MG glioma cells = assay: PD-induced growth arrest (BrdU incorporation); format: cell-based; conditions: BrdU incorporation 7 days after treatment
Description: (§1) Cell lines were maintained in DMEM High glucose (HG) supplemented with 10% heat-inactivated fetal bovine serum. Glioma cell lines, DKMG, SNB19, DBTRG-05MG, and […], were maintained in DMEM HG supplemented with 10% fetal bovine serum and 2 mM glutamine. The MCF7 breast cancer cell line was maintained in RPMI-1640 media supplemented with 10% fetal bovine serum and 2 mM glutamine.
(§2) shRNA were delivered in the pLKO.1 vector (Sigma) and infected cells selected using puromycin (1 μg/ml); infection with a virus carrying a scramble control ([…]) was used as a control in all experiments utilizing shRNA. Cell lines were treated with […] or shRNA directed against CDK4 ([…] (SEQ ID NO:4)), MDM2 (M376, […] (SEQ ID NO:5); M380, […] (SEQ ID NO:6)), HAUSP (4057, […] (SEQ ID NO:7); 845, […] (SEQ ID NO:8)) or CDK6 ([…] (SEQ ID NO:9)) for 48 hours to 7 days and stained with BrdU (20 μM for two hours) or annexin V as previously described (22, 48). […] was determined by staining with propidium iodine and FACS analyses (49).
(§3) Cells were stained with BrdU (20 μM for two hours) or annexin V as previously described (22, 48). […] was determined by staining with propidium iodine and FACS analyses (49).

DKMG glioma cells = assay: PD-induced growth arrest (BrdU incorporation); format: cell-based; conditions: BrdU incorporation 7 days after treatment
Description: as §1, §2, §3

MCF7 breast cancer cells = assay: PD-induced growth arrest (BrdU incorporation); format: cell-based; conditions: BrdU incorporation 7 days after treatment
Description: as §1, §2, §3

SNB19 glioma cells = assay: PD-induced growth arrest (BrdU incorporation); format: cell-based; conditions: BrdU incorporation 7 days after treatment
Description: as §1, §2, §3

T98G glioma cells = assay: PD-induced growth arrest (BrdU incorporation); format: cell-based; conditions: BrdU incorporation 7 days after treatment
Description: as §1, §2, §3

RB in WD/DDLS cell lines = assay: RB phosphorylation by immunoblot; format: cell-based, human; conditions: 1 or 2 days of treatment
Description: FIG. 1A-C. […] Mean percentage of BrdU incorporation or annexin V+/7-AAD− cells was calculated from three or more independent experiments. Error bars represent standard deviation (*p<0.05).
Antibodies against CDK4 (3F121), MDM2 (N-20 and SMP14), total RB (IF8), Cyclin A (H432), p16 (C20), p53 (DO-1 and Bp53-12), tubulin (C20) and FLAG (M2) were obtained from Santa Cruz Biotechnology, phospho-Rb 780 (#9307) from Cell Signalling, and ARF (3642) from Abeam, HAUSP (A300-033A) from Bethyl Laboratories. Treated cells were lysed with buffer composed of 50 mM Tris-HCl, pH7.4, 250 mM NaCl, 5 mM EDTA, 0.5% NP40, 2 mM PMSF, and supplemented with protease inhibitors. Eighty micrograms of protein were resolved by SDS-PAGE and transferred to PVDF membranes. Membranes were incubated overnight with antibodies (1:1000). […] Cycles were repeated every four weeks and patients are still on trial. Pre-treatment biopsies were collected within two weeks of the first dose and post-treatment biopsies collected after at last three weeks of treatment. Extracts were prepared in 50 mM Tris-HCl, pH7.4, 150 mM NaCl, 1 mM EDTA, 1% NP40, 0.25% sodium deoxycholate and supplemented with mini-protease inhibitor cocktail (Roche). Tumor response was assessed by reference radiologist by CT scan every six weeks for 36 weeks, and every 12 weeks thereafter. […]

[1] = test system: cytokine secretion of LS8313 cells; assay: human cytokine array (SASP); format: cell-based; conditions: 1 μM, seven days
Description: (§4) FIG. 16. […] Human cytokine arrays were purchased from R&D Technologies (ARY006). […] The media was changed 24 hours prior to harvest. On the day of harvest, the media was collected, spun for 5 minutes at 1200 rpm and filtered through a […] syringe to remove debris. Cells were trypsinized and counted and media volume was adjusted so that an equal number of cells were represented from each sample. Cytokine arrays were performed according to manufacturer's protocol. Signal intensity was measured using ImageJ and a log2 value of the PD/CTRL ratio was calculated.

[2] = test system: cytokine secretion of LS8817 cells; assay: human cytokine array (SASP); format: cell-based; conditions: 1 μM, seven days
Description: as §4

[3] = test system: catalase in WD/DDLS cell lines; assay: catalase expression by immunoblot; format: cell-based, human; conditions: two senescing and two non-senescing cell lines
Description: FIG. 22. Additional immunoblot analysis in responder and non-responder cells. […] Actin is a loading control. This experiment was repeated at least three times for each cell line.

[4] = test system: LS8107, LS7785-10, LS8313 and LS7785-1 cells; assay: Oil-Red O staining of lipid droplets; format: cell-based, human
LS6736 cells = assay: SA-β-gal and HP1γ staining in LS6736; format: cell-based, human; conditions: LS6736 (MDM2 amplified, CDK4 not); seven days
Description: Cells were plated at a concentration of 25,000 per well in a 4-well chamber slides (Lab-Tek) and treated for seven days with drug or shRNA as described above and stained for senescence-associated β-galactosidase (Cell Signaling kit #9860). Cell number was quantitated by DAPI staining and β-galactosidase staining quantitated as a proportion of total cells. Senescence associated heterochromatic foci were quantitated after cells were fixed with 4% paraformaldehyde, permeabilized with 0.1% Triton, blocked with 2% FBS, and stained with antibodies against HP1γ (1:5000 dilution, 2MOD-1G6 Millipore). Senescent cells were identified by immunofluorescence after treatment of slides with anti-mouse secondary antibodies and quantitation of focal SAHF as a percent of total cells (Leica Upright Confocal SP5 confocal microscope). Actin was marked using phalloidin staining (1:500, Invitrogen) and cells were counterstained with DAPI. Cell area was measured by with Metamorph software to calculate relative area per cell.

[5] = test system: MDM2 in LS0082, LS141 and LS8817 cells; assay: MDM2 turnover (cycloheximide chase), responder cells; format: cell-based, human; conditions: 1 μM for 48 hrs, then cycloheximide
Description: (§5) The level of MDM2 was measured by immunoblot (center). Tubulin was a loading control. […] This experiment was repeated at least three times on different biologic replicates. […] Tubulin is a loading control. Data compiled from at least three independent experiments is plotted (mean and standard deviation) and a representative immunoblot is shown. […] The graphs are compiled from the data obtained in three independent biologic replicates and representative autoradiographs are shown.

[6] = test system: MDM2 in LS7785-1 and LS7785-10 cells; assay: MDM2 turnover (cycloheximide chase), non-responder cells; format: cell-based, human; conditions: non-responder cells LS7785-1 and LS7785-10; 1 μM for 48 hrs, then cycloheximide
Description: as §5

For `CC(=O)c1c(C)c2cnc(Nc3ccc(N4CCNCC4)cn3)nc2n(C2CCCC2)c1=O` [PD0332991], the PD-induced growth arrest (DBTRG-05MG glioma cells) was “+ (BrdU incorporation is reduced at least 8X 7 days after treatment with the drug)”, the PD-induced growth arrest (DKMG glioma cells) was “+ (BrdU incorporation is reduced at least 8X 7 days after treatment with the drug)” and the PD-induced growth arrest (MCF7 breast cancer cells) was “+ (BrdU incorporation is reduced at least 8X 7 days after treatment with the drug)”. The PD-induced growth arrest (SNB19 glioma cells) was “+ (BrdU incorporation is reduced at least 8X 7 days after treatment with the drug)”, the PD-induced growth arrest (T98G glioma cells) was “+ (BrdU incorporation is reduced at least 8X 7 days after treatment with the drug)” and the “unphosphorylated RB” value (RB in WD/DDLS cell lines) was “accumulated”. For the same compound, the SASP cytokine secretion [1] was “only IL-6 secretion increased”, the “MIF-1 and PAI-1 secretion” value [2] was “essentially unchanged” and the “secretion of GM-CSF, GROα/CXCL1, IL-6, IL-8 and MCP-1” value [2] was “upregulated”. For the same compound, the catalase expression [3] was “increased”, the “Oil-Red O staining” value [4] was “not increased” and the “number of SA-β-gal and SAHF (HP1γ) positive cells” value (LS6736 cells) was “did not increase”. For the same compound, the “MDM2 stability / protein half-life” value [5] was “markedly reduced” and the MDM2 stability [6] was “largely unaffected”.
